Earlier results, collected in patent publication US20230301959A1, “COMBINATIONS OF CARNOSINE AND ZINC FOR THE TREATMENT AND PREVENTION OF VIRAL INFECTIONS” (priority 2020, published 2023).

Legend:
H9N2 influenza virus = details: mouse, in vivo, po, 10 mg/kg
Dengue and Zika virus = details: liver cell culture
[1] = dietary administration
rhinovirus 3C protease = rhinovirus 3C protease (Human rhinovirus 14, UniProt P03303)
poliovirus 3C protease = poliovirus 3C protease (Poliovirus type 1, UniProt P03300)
Chain of poliovirus 3C protease (P03300 1566-1748 limits assumed): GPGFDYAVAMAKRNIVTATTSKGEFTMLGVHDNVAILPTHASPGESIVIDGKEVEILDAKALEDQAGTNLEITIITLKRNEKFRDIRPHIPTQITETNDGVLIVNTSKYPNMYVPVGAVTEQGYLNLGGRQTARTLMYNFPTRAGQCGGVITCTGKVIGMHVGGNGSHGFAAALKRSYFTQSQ

human rhinovirus = details: infected cells
coxsackievirus B3 = details: infected cells
[2] = target: T1, viral RNA-dependent RNA polymerase (RdRp) from rhinoviruses (Human rhinovirus 16, UniProt Q82122)
T1 construct: viral RNA-dependent RNA polymerase (RdRp) from rhinoviruses and hepatitis C
T1 sequence (Q82122 1694-2153 limits assumed): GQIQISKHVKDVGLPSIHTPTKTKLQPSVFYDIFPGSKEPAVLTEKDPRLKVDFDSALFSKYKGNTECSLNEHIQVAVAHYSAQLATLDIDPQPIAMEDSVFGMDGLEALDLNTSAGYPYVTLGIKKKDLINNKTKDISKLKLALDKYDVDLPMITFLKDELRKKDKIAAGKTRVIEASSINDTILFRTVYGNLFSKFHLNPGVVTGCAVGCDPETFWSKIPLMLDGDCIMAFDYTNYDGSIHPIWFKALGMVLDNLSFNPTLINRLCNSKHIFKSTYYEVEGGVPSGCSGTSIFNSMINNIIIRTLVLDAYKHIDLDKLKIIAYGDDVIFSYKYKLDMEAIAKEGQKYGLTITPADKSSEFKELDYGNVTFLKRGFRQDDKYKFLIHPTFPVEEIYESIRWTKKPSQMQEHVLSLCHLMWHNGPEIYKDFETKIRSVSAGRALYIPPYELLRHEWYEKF

[3] = system: viral RNA-dependent RNA polymerase (RdRp) from hepatitis C
[4] = target: coronavirus RNA polymerase (Severe acute respiratory syndrome coronavirus, UniProt P0C6X7)
[5] = target: T2, arterivirus RNA polymerase (Equine arteritis virus, UniProt P19811); details: in vitro
T2 sequence (P19811 1678-2370 limits assumed): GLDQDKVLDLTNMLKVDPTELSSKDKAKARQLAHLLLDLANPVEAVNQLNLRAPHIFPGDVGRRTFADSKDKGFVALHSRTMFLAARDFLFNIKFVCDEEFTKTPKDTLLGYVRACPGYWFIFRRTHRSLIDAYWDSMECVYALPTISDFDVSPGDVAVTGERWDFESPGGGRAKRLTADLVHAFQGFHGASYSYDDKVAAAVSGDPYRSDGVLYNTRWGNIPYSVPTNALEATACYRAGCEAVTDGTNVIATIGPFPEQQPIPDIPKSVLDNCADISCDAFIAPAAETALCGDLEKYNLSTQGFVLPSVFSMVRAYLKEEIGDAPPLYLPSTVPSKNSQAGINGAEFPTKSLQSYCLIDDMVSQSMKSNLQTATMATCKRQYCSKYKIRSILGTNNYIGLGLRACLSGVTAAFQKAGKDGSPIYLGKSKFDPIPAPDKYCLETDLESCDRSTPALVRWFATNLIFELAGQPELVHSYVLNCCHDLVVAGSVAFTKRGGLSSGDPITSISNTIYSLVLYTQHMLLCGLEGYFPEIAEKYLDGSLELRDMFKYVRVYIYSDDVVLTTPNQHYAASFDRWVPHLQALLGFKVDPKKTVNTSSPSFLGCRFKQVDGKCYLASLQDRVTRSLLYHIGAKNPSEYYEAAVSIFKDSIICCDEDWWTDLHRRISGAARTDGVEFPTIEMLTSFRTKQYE

Chain of rhinovirus 3C protease (P03303 1538-1719 limits assumed): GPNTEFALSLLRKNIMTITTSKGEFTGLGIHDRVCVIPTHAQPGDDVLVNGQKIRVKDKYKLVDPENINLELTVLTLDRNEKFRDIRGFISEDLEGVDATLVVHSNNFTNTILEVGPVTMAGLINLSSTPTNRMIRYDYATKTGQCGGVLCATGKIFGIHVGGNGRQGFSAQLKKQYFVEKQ

Row | Compound | levels of TNF-a, IL-1b, TLR-4 mRNA and protein (H9N2 influenza virus) | lung wet mass ratio (H9N2 influenza virus) | myeloperoxidase activity (H9N2 influenza virus) | overall mortality (H9N2 influenza virus) [%] | pathological lung lesions (H9N2 influenza virus) | cell viability post infection (Dengue and Zika virus) | viral genome replication (Dengue and Zika virus) | early atherosclerotic lesion formation [1] | renal disease [1] | safety of regular administration (2-4 months, in combination with forskolin, homotaurine, vitamins B1, B2, B6, folic acid, magnesium, different age groups) | tolerability (2 weeks, obese patients with Type-II diabetes and Gulf-War Veterans, without any reported adverse reactions) | protease activity (rhinovirus 3C protease) | protease activity (poliovirus 3C protease) | polyprotein processing (human rhinovirus) | polyprotein processing (coxsackievirus B3) | activity of RdRp [2] | activity of RdRp [3] | RNA polymerase activity [4] | RNA polymerase activity [5]
1 | NCCC(=O)N[C@@H](Cc1cnc[nH]1)C(=O)O [carnosine, β-alanyl-L-histidine] | significantly reduced | decreased | reduced | 43 | improvement | ameliorate | significantly inhibit | prevent | attenuating | safe | well tolerated |  |  |  |  |  |  |  | 
2 | [Zn+2] [zinc ion] |  |  |  |  |  |  |  |  |  |  |  | inhibited | inhibited | inhibited | inhibited | inhibitory effect | inhibitory effect | inhibits | inhibits
